These results are taken from DBAASP.

In brackets after ≈: the same amount, converted by molar mass. Several values for one entry are separate records, joined by “and”; a condition that tells them apart may be missing. Equal values may be shown once.

Some test systems named below: Acinetobacter baumannii; Pseudomonas aeruginosa; Escherichia coli; Staphylococcus aureus.
Common to all, as to test: ≥ marks a high value that may be exact or a test limit, other limits are often not marked, values filed in µg/mL are converted to µM
Assay [1] relates to Acinetobacter baumannii ATCC 19606.
Assay [2] deals with Bacillus anthracis Sterne 34F2.
In assay [3] the test system is Haemophilus influenzae ATCC 49247.
Assay [4] concerns Klebsiella pneumoniae NCTC 9633.
In assay [5] the test system is Mycobacterium tuberculosis H37Ra.
In assay [6] the test system is Pseudomonas aeruginosa 253.
In assay [7] the test system is Pseudomonas aeruginosa 910.
Assay [8] relates to Pseudomonas aeruginosa 919.
Assay [9] concerns Staphylococcus aureus NRS 72.
Assay [10] concerns Staphylococcus aureus USA 300.
In assay [11] the test system is Acinetobacter baumannii AB1.
Assay [12] has as its system Acinetobacter baumannii AB2.
In assay [13] the test system is Acinetobacter baumannii AB3.
Assay [14] deals with Klebsiella pneumoniae KP1.
Assay [15] relates to Klebsiella pneumoniae KP2.
For assay [16], the system named is Klebsiella pneumoniae KP3.
Assay [17] has as its system Klebsiella pneumoniae KP4.
For assay [18], the system named is Pseudomonas aeruginosa TRPA 108.
The subject of assay [19] is Pseudomonas aeruginosa TRPA 111.
Assay [20] deals with Staphylococcus aureus 4003.
The test system of assay [21] is Staphylococcus aureus ATCC 43300.
For assay [22], the system named is Staphylococcus aureus ATCC 6538.
The test system of assay [23] is Staphylococcus aureus ATCC BAA-44.
Assay [24] concerns Staphylococcus aureus NRS 1.
Assay [25] deals with Staphylococcus aureus NRS 846.
In assay [26] the test system is Staphylococcus aureus RN4220.
Assay [27] has as its system Staphylococcus aureus USA 100.
In assay [28] the test system is Staphylococcus aureus USA 400.
Assay [29] relates to Staphylococcus aureus VRSA4.
For assay [30], the system named is Staphylococcus epidermidis NRS 101.
For assay [31], the system named is Escherichia coli ATCC 25922.
Assay [32] deals with Mycobacterium tuberculosis CAS3.
For assay [33], the system named is Mycobacterium tuberculosis FYX.
The test system of assay [34] is Mycobacterium tuberculosis H37Rv.
Assay [35] deals with Mycobacterium tuberculosis WXY.
The test system of assay [36] is Pseudomonas aeruginosa H103.
In assay [37] the test system is Pseudomonas aeruginosa PAO1.
For assay [38], the system named is Salmonella enterica serovar Typhimurium.
Assay [39] relates to Staphylococcus aureus ATCC 25923.

Consider `CC(C)[C@H](NC(=O)[C@H](Cc1c[nH]c2ccccc12)NC(=O)[C@H](CCCN=C(N)N)NC(=O)[C@H](Cc1c[nH]c2ccccc12)NC(=O)[C@H](Cc1c[nH]c2ccccc12)NC(=O)[C@H](CCCN=C(N)N)NC(=O)[C@@H](N)CCCN=C(N)N)C(=O)N[C@H](C(=O)N[C@@H](Cc1c[nH]c2ccccc12)C(N)=O)C(C)C` [RRWWRWVVW], for which the MIC in assay [1] is 10 µM (≈ 14.3 µg/mL); in [2], 20 µM (≈ 28.6 µg/mL); in [3], at least 40 µM; in assay [4], 2.5 µM (≈ 3.57 µg/mL); in assay [5], 20 µM (≈ 28.6 µg/mL); in [6] it was 8 µM (≈ 11.4 µg/mL). Further, the MIC stood at 8 µM (≈ 11.4 µg/mL) in assay [7], 2 µM (≈ 2.86 µg/mL) in assay [8], 20 µM (≈ 28.6 µg/mL) in assay [9] and 20 µM (≈ 28.6 µg/mL) in assay [10].
On to `NC(N)=NCCC[C@H](NC(=O)[C@H](CCCN=C(N)N)NC(=O)[C@H](Cc1c[nH]c2ccccc12)NC(=O)[C@H](Cc1c[nH]c2ccccc12)NC(=O)[C@H](CCCN=C(N)N)NC(=O)[C@H](CCCN=C(N)N)NC(=O)[C@H](Cc1c[nH]c2ccccc12)NC(=O)[C@H](Cc1c[nH]c2ccccc12)NC(=O)[C@H](CCCN=C(N)N)NC(=O)[C@H](Cc1c[nH]c2ccccc12)NC(=O)[C@H](Cc1c[nH]c2ccccc12)NC(=O)[C@@H](N)CCCN=C(N)N)C(=O)O` [RWWRWWRRWWRR], for which the MIC in assay [11] amounted to 2.41 µM (≈ 5 µg/mL); in [12] it was 1.45 µM (≈ 3 µg/mL); in [13], 5.31 µM (≈ 11 µg/mL); with Acinetobacter baumannii, 2.7 µM (≈ 5.6 µg/mL); in assay [14] it was 13 µM (≈ 27 µg/mL); in assay [15], 15.4 µM (≈ 32 µg/mL). In addition, the MIC in assay [16] amounted to 15.4 µM (≈ 32 µg/mL); in assay [17], 15.4 µM (≈ 32 µg/mL); in [18], 1.93 µM (≈ 4 µg/mL); in [19], 1.45 µM (≈ 3 µg/mL); against Pseudomonas aeruginosa, 3.3 µM (≈ 6.84 µg/mL); in assay [20], 1.45 µM (≈ 3 µg/mL). Also, the MIC in assay [21] was determined as 2 µM (≈ 4.14 µg/mL); in assay [22] it was 4 µM (≈ 8.29 µg/mL); in [23] it was 4 µM (≈ 8.29 µg/mL); in assay [24] it was 1 µM (≈ 2.07 µg/mL); in assay [25], 16 µM (≈ 33.2 µg/mL); in assay [26] it was 2 µM (≈ 4.14 µg/mL). The MIC in assay [27] was 3.38 µM (≈ 7 µg/mL); in [28], 2 µM (≈ 4.14 µg/mL); in assay [29], 5.66 µM (≈ 11.7 µg/mL); in assay [30], 4 µM (≈ 8.29 µg/mL).
Turning to `CC[C@H](C)[C@H](NC(=O)[C@H](CCCN=C(N)N)NC(=O)[C@H](CC(C)C)NC(=O)[C@H](CCC(N)=O)NC(=O)[C@@H](N)C(C)C)C(=O)N[C@@H](CCCN=C(N)N)C(=O)N[C@H](C(=O)N[C@@H](C)C(=O)N[C@H](C(=O)N[C@H](C(=O)N[C@@H](CCCN=C(N)N)C(=O)N[C@@H](C)C(N)=O)[C@@H](C)CC)C(C)C)C(C)C` [VQLRIRVAVIRA], the MIC against Acinetobacter baumannii is at least 45.9 µM; in assay [31], 23 µM (≈ 32 µg/mL); against Escherichia coli it was 64.9 µM (≈ 90.4 µg/mL); in assay [32] it was at least 53.8 µM; in assay [33], 26.9 µM (≈ 37.5 µg/mL); in assay [34], 21 µM and 26.9 µM. The MIC in assay [35] was 13.5 µM (≈ 18.7 µg/mL); in assay [36], at least 53.8 µM; in assay [37], 91.8 µM (≈ 128 µg/mL); against Pseudomonas aeruginosa, 64.9 µM (≈ 90.4 µg/mL); in [38] it was 23 µM (≈ 32 µg/mL); in assay [39], 27.3 µM and 45.9 µM. Besides, the MIC with Staphylococcus aureus was found to be 64.9 µM (≈ 90.4 µg/mL).
